# Test results: patent publication US20240158339A1, “TYRAMINE CONTAINING HYDROXYCINNAMIC ACID AMIDE DERIVATIVES AND METHODS OF USE THEREOF” (Brightseed, Inc., priority 2018, published 2024)
# “Also recorded” adds a separate entry of the source.
# Legend:
# HNF4α = target: T1, HNF4α (Homo sapiens, UniProt P41235); assay: Insulin promoter activity assay (HNF4α assay) in T6PNE cells; format: cell-based
# T1 construct: T6PNE cells (Kiselyuk, et al. (2012) Chem. Biol. 19(7):806-818; Kiselyuk, et al. (2010) J. Biomol; endogenous in cells; host or cells: T6PNE cells
# T1 sequence (P41235 1-474): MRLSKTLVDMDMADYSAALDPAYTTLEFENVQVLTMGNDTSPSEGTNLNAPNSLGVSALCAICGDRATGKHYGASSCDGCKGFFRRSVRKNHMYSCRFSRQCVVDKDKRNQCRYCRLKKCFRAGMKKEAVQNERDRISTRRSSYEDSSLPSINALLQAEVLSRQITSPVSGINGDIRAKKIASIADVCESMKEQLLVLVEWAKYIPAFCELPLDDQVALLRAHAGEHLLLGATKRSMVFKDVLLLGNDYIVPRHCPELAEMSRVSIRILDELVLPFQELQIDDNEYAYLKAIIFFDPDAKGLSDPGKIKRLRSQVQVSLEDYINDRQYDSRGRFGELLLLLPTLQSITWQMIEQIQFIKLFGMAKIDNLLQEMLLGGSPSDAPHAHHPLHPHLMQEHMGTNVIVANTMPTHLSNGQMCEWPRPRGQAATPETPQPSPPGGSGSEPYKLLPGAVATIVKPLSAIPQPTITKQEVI
# Experimental: Insulin Promoter Activity. T6PNE cells (Kiselyuk, et al. (2012) Chem. Biol. 19(7):806-818; Kiselyuk, et al. (2010) J. Biomol. Screen 15(6):663-70) are seeded at 2000 cells per well in 384-well tissue culture plates in the presence of 1 μM tamoxifen and 0.03 mM palmitate. After a 24-hour incubation, a compound of the invention is added to the cells. Forty-eight hours after compound addition, cells are fixed in 4% paraformaldehyde and stained with DAPI. Blue (DAPI) and green (human insulin promoter driving GFP) channels are imaged.
# Inhibition of HNF4α GFP Expression. Using the insulin promoter assay described herein, activity of HNF4α was assessed in the presence of BI-6015 (0, 2.5, 5 μM), a known antagonist of HNF4α (Kiselyuk, et al. (2012) Chem. Biol. 19(7):806-818), in combination with N-trans-caffeoyltyramine (0, 5, 10, 20 μM).
# Given the role of HNF4α in maintaining a health metabolism in humans, test compounds were screened for activity as HNF4α agonists (either direct or indirect effects). Using a known insulin promoter-reporter assay Kiselyuk and colleagues (2010. J. Biomol. Screen 15(6):663-70) screened a library of compounds for activity to promote insulin activation. […] The OTC promoter is known to be responsive to HNF4α in transient transfection assays (Inoue, et al. (2002) J. Biol. Chem. 277:25257-65).
# Plant compounds in the top 10th percentile of similarity to the 18 target structures were selected and compounds predicted to be potential agonists of HNF4α activity given their chemical structural features were screened in the HNF4α assay.
# diet-induced obese mice = assay: Efficacy in diet-induced obese mice; format: in vivo
# Experimental: Alkaline Phosphatase (ALP) Quantitation. Increased levels of ALP in blood are considered indicative of liver function abnormalities. Thus, ALP was assayed in accordance with known methods (Kiselyuk, et al. (2012) Chem. Biol. 19(7):806-818). Briefly, prior to sacrifice, blood was drawn and analyzed using a VetScan blood analyzer, measuring alkaline phosphatase (ALP, IU/L), alanine aminotransferase (ALT, IU/L), gamma glutamyl transferase (GGT, IU/L), bile acids (BA, μmol/L), total bilirubin (TBIL, mg/dL), albumin (ALB, g/dL), blood urea nitrogen (BUN, mg/dL), and cholesterol (CHOL, mg/dL).
# Triglyceride (TG) Quantitation. TG quantity was assayed using a Triglyceride Colorimetric Assay Kit (Cayman Chemicals; Ann Arbor, MI) according to the manufacturer's instructions.
# Lipid Droplet Size Analysis. All slides were scanned at a magnification of 20× using the Aperio Scanscope FL system (Aperio Technologies Inc.; Vista, CA). The appropriate dyes were assigned and illumination levels were calibrated using a preset procedure; the parameters were saved and applied to all slides. The acquired digital images represented whole tissue sections. Sections were evaluated for image quality. All acquired images were subsequently placed in dedicated project folders, and stored on a designated local server. Selected areas of the slides were selected using Aperio Imagescope (version 12 Aperio Technologies Inc.). For analysis, slides were viewed, whole tissue areas were selected and analyzed using the web-based Image Scope viewer. Slides were quantified using the ‘Color Deconvolution v9’ algorithm for oil redo staining (version 11 Aperio Technologies Inc.). The algorithm was optimized using a preset procedure to maximize the strong red color positive oil droplets signal to noise ratio and the subsequent macro was saved and applied to all slides.
# HNF4α Immunostaining in Organ Samples. Samples were harvested from mice, fixed in 4% paraformaldehyde and embedded in paraffin or O.C.T. freezing media (Sakura Finetek; Torrance, CA). Slides of 5 μm thickness were washed four times with PBS and treated with 0.3% Triton™ in PBS for 10 minutes. Antigen retrieval was carried out with CitriSolv™ (Fisher Scientific; Waltham, MA) for 10 minutes in sub-boiling temperature. After washing with PBS for 10 minutes, slides were incubated in blocking solution with 5% normal donkey serum (Jackson Immuno Research; West Grove, PA) for 60 minutes at room temperature. Cells were fixed in 4% paraformaldehyde for 15 minutes on 4° C. and washed with PBS, treated with 0.3% Triton™ in PBS for 10 minutes and blocked as previously described for slide samples.
# Primary Antibodies. HNF4α antibodies were used (#sc-6556, Santa Cruz Biotechnology; Santa Cruz, CA and #3113, Cell Signaling Technology; Danvers, MA). For fluorescent imaging, samples were incubated with ALEXA FLOUR® 488 green-fluorescent dye or Rhodamine labeled anti-mouse, rabbit or goat and nuclei were counterstained with DAPI (4′,6-diamidino-2-phenylindole). Controls using secondary antibodies alone were used to ensure specificity of immunostaining. Fluorescently labeled sections were analyzed with a conventional inverted microscope (Olympus, PlanFl 40x/0.60) or with a confocal microscope equipped with a krypton/argon laser.
# The experiments were performed to establish feedingand treatment regimens, dosing and administration regimens, as well as to provide evidence of beneficial effects of N-trans-caffeoyltyramine on glucose and lipid homeostasis, hepatic steatosis, -cell function and hepatocyte function. Twelve mice (10 weeks old) were fed a high-fat diet for four weeks to induce obesity. After four weeks, and while on the high-fat diet, six mice were administered 5% DMSO or 120 mg/kg N-trans-caffeoyltyramine twice a day intraperitoneally for 14 days. One hour after the last i.p. injection of DMSO or N-trans-caffeoyltyramine, the animals were sacrificed and blood and organ (liver, kidney, gut and pancreas) samples were collected. […]
smiles,measurement,setting,value
O=C(/C=C/c1ccc(O)c(O)c1)NCCc1ccc(O)cc1 [N-trans-caffeoyltyramine],potency in activating HNF4α relative to Alverine,"HNF4α; FIG. 1, dose-response, insulin promoter activity",roughly an order-of-magnitude more potent than Alverine
same,HNF4α activation / bioactivity (screening result in words),"HNF4α; HNF4α assay, screening and SAR statements",able to act as HNF4α modulators
same,lipid accumulation in the liver,diet-induced obese mice; 120 mg/kg twice a day i.p. for 14 days vs DMSO,decreased lipid accumulation
same,lipid droplet sizes in the liver,"diet-induced obese mice; 120 mg/kg twice a day i.p. for 14 days vs DMSO, FIG. 8",reduced
same,levels of triglycerides,"diet-induced obese mice; 120 mg/kg twice a day i.p. for 14 days vs DMSO, FIG. 10",significantly reduced
same,HNF4α expression in the pancreas,"diet-induced obese mice; 120 mg/kg twice a day i.p. for 14 days vs DMSO, FIG. 11",increased
same,HNF4α expression in intestines,"diet-induced obese mice; 120 mg/kg twice a day i.p. for 14 days vs DMSO, FIG. 12",increased
same,HNF4α expression in the liver (nuclear expression),"diet-induced obese mice; 120 mg/kg twice a day i.p. for 14 days vs DMSO, P=0.0042, FIG. 7",significantly increased; also recorded: increases nuclear expression of HNF4α
same,"weight loss, sickness, or abnormal behaviors compared to the control group","diet-induced obese mice; 120 mg/kg twice a day i.p. for 14 days, high-fat diet mice","None of the treated mice exhibited weight loss, sickness, or abnormal behaviors"
same,levels of alkaline phosphatase,"diet-induced obese mice; blood, 120 mg/kg twice a day i.p. for 14 days vs DMSO, FIG. 9",significantly reduced
